Laboratory results reported in patent US20160318891A1, “TONABERSAT PRODRUGS” (PROXIMAGEN LIMITED, priority 2013, published 2016).
Converted amounts (≈) assume the structure as drawn. Where two headings read alike, the source gives them in different places. One block for each compound: values may come before it.

What was measured:
[1] = cited from earlier work
[2] = over a range of pH values including pH of 7.4; cited from earlier work
[3] = rat brain; cited from earlier work
[4] = human brain; cited from earlier work
[5] = test system: high K+ evoked CSD; details: cats; cited from earlier work
[6] = test system: high K+ evoked CSD; details: rats; cited from earlier work
[7] = Solubility in aqueous solution; assay type: physicochemical
Source text: In an embodiment prodrugs of the present invention are suitable for oral administration. The skilled person understands that the pH of the gastrointestinal tract changes along its length. For example, the stomach has a pH of around pH 1.5 and the GI tract after the stomach has a pH of around 5 to 7.5. For more detail see, for example, Measurement of gastrointestinal pH profiles in normal ambulant human subjects, Gut. 1988 August; 29(8): 1035-1041. Improved solubility is expected to result in improved absorption, and therefore improved oral bioavailability. Thus improved solubility at any pH value between around pH 1.5 to 8 is expected to improve oral bioavailability. Compounds of the invention were assessed for solubility in aqueous solutions having a pH of from 2 to 10. In an embodiment prodrugs of the invention have a solubility of >0.5 mg/mL in an aqueous solution having a pH of from 2 to 8. In an embodiment prodrugs have a solubility of >5.0 mg/mL, or >10.0 mg/mL, >100.0 mg/mL, or >200.0 mg/mL. In an embodiment the prodrugs have the aforementioned aqueous solubility at a pH within the range of from 4 to 8, or from 6 to 8.
In an embodiment prodrugs of the invention are administered intravenously. High prodrug solubility is advantageous in order to reduce the volume of solution administered to the patient, and to reduce the risk of damage to the circulatory system. Solubility of >10 mg/mL is preferred. Yet more preferred is solubility of >30 mg/mL or >100.0 mg/mL. Yet more preferred is solubility of >200.0 mg/mL. The solubility is measured in an aqueous solution having a pH of from 2 to 10, which pH range is advantageous for intravenous prodrug delivery. See, for example, A guide on intravenous drug compatibilities based on their pH, Nasser S C et al./Pharmacie Globale (IJCP) 2010, 5 (01)). In an embodiment the prodrugs of the claimed invention have solubility of >10 mg/mL in an aqueous solution having a pH of from 2 to 10.

[8] = molecular target: T1, hERG K+ channel (Homo sapiens, UniProt Q12809); assay: hERG assay, IonWorks patch clamp electrophysiology; assay type: cell-based; details: human, pH 7.3; 11 uM; Chinese Hamster Lung cell line stably expressing hERG
T1 construct: a Chinese Hamster Lung cell line stably expressing the full length hERG channel; expressed in transfected cells; host or cells: Chinese Hamster Lung cell line
T1 sequence (Q12809 whole entry): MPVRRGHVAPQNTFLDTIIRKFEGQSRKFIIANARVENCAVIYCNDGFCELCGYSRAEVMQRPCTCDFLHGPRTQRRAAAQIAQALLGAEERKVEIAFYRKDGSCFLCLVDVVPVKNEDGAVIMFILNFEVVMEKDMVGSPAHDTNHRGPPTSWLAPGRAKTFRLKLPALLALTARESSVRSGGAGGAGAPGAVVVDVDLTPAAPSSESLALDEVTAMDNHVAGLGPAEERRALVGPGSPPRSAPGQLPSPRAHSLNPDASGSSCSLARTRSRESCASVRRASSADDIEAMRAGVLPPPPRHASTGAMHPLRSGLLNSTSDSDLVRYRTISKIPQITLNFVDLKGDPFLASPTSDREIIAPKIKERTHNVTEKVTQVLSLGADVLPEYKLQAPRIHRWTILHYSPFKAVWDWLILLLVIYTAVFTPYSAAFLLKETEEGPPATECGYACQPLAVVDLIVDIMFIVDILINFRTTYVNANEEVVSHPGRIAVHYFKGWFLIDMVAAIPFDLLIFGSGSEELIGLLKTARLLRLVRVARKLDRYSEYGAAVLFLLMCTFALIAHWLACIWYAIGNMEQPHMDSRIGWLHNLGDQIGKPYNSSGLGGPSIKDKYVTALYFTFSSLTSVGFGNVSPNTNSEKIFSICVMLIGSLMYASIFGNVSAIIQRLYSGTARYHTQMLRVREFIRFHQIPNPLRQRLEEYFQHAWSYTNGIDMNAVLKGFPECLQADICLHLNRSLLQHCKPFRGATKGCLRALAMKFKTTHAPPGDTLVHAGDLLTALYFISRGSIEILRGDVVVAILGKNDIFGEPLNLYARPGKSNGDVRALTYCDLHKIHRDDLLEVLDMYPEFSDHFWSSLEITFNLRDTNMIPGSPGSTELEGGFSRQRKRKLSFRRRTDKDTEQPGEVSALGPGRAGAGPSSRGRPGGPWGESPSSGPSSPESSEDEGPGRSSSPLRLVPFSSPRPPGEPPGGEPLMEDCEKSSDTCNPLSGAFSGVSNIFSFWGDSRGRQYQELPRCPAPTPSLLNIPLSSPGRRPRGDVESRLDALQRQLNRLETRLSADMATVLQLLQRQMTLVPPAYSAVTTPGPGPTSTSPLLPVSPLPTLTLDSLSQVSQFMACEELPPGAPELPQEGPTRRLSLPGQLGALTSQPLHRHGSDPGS
Description: (§1) Compounds of the invention were tested for inhibition of the human ether a go-go related gene (hERG) K^+ channel using IonWorks patch clamp electrophysiology. 8 Point concentration-response curves were generated on two occasions using 3-fold serial dilutions from the maximum assay concentration (33 uM). Electrophysiological recordings were made from a Chinese Hamster Lung cell line stably expressing the full length hERG channel. Single cell ion currents were measured in the perforated patch clamp configuration (100 ug/mL amphoterocin) at room temperature using an IonWorks Quattro instrument. The internal solution contained 140 mM KCl, 1 mM MgCl2, 1 mM EGTA and 20 mM HEPES and was buffered to pH 7.3. The external solution contained 138 mM NaCl, 2.7 mM KCl, 0.9 mM CaCl2, 0.5 mM MgCl2, 8 mM Na2HPO4 and 1.5 mM KH2PO4, and was buffered to pH 7.3. Cells were clamped at a holding potential of […] for 30 s and then stepped to +40 mV for is. This was followed by a hyperpolarising step of 1 s to […] to evoke the hERG tail current. This sequence was repeated 5 times at a frequency of 0.25 Hz. Currents were measured from the tail step at the 5th pulse, and referenced to the holding current. Compounds were incubated for 6-7 min prior to a second measurement of the hERG signal using an identical pulse train. […] A control compound (quinidine) was used.

[9] = molecular target: T2, human ether a go-go related gene (hERG) K+ channel (Homo sapiens, UniProt Q12809); assay: hERG assay, IonWorks patch clamp electrophysiology; assay type: cell-based; details: Chinese Hamster Lung cell line stably expressing hERG; maximum assay concentration 33 uM
T2 construct: a Chinese Hamster Lung cell line stably expressing the full length hERG channel; expressed in transfected cells; host or cells: Chinese Hamster Lung cell line
T2 sequence (Q12809 whole entry): as above
Description: as §1

Structure (SMILES): CC(=O)c1ccc2c(c1)[C@H](NC(=O)c1ccc(F)c(Cl)c1)[C@H](O)C(C)(C)O2 [Tonabersat]
log P [1]: 3.32
aqueous solubility [2]: 25 µg/mL (≈ 63.8 µM)
binding to unique stereo-selective site [3]: binds selectively and with high affinity
binding to unique stereo-selective site [4]: binds selectively and with high affinity
inhibition of high K+ evoked CSD [5]: inhibits high K+ evoked CSD
inhibition of high K+ evoked CSD [6]: inhibits high K+ evoked CSD

Structure (SMILES): CC(=O)c1ccc2c(c1)[C@H](NC(=O)c1ccc(F)c(Cl)c1)[C@H](OC(=O)[C@@H](N)CCCCN)C(C)(C)O2.Cl.Cl [Example 9, (3S,4S)-6-Acetyl-4-[(3-chloro-4-fluorobenzene)amido]-2,2-dimethyl-3,4-dihydro-2H-1-benzopyran-3-yl (2S)-2,6-diaminohexanoate dihydrochloride]
solubility ([7]; pH 4.4, aqueous buffer): > 10000 µg/mL
inhibition at 11 µM [8]: 0%

Structure (SMILES): CC(=O)c1ccc2c(c1)[C@H](NC(=O)c1ccc(F)c(Cl)c1)[C@H](OC(=O)[C@@H](N)CC(=O)O)C(C)(C)O2 [Example 13, (3S)-4-{[(3S,4S)-6-Acetyl-4-[(3-chloro-4-fluorobenzene)amido]-2,2-dimethyl-3,4-dihydro-2H-1-benzopyran-3-yl]oxy}-3-amino-4-oxobutanoic acid; trifluoroacetic acid]
solubility ([7]; pH 6.5, aqueous buffer): > 2000 µg/mL
inhibition at 11 µM [8]: 19%

Structure (SMILES): CC(=O)c1ccc2c(c1)[C@H](NC(=O)c1ccc(F)c(Cl)c1)[C@H](OCOC[C@@H](O)CO)C(C)(C)O2 [Example 16, N-[(3S,4S)-6-Acetyl-3-{[(2S)-2,3-dihydroxypropoxy]methoxy}-2,2-dimethyl-3,4-dihydro-2H-1-benzopyran-4-yl]-3-chloro-4-fluorobenzamide]
solubility ([7]; aqueous buffer, pH 3.0): < 1000 µg/mL

Structure (SMILES): CC(=O)c1ccc2c(c1)[C@H](NC(=O)c1ccc(F)c(Cl)c1)[C@H](OC(=O)[C@@H](N)CCC(=O)O)C(C)(C)O2 [Example 14, (4S)-5-{[(3S,4S)-6-Acetyl-4-[(3-chloro-4-fluorobenzene)amido]-2,2-dimethyl-3,4-dihydro-2H-1-benzopyran-3-yl]oxy}-4-amino-5-oxopentanoic acid; trifluoroacetic acid]
solubility ([7]; pH 4.6, aqueous buffer): > 2000 µg/mL
inhibition at 11 µM [8]: 8%

Structure (SMILES): CC(=O)c1ccc2c(c1)[C@H](NC(=O)c1ccc(F)c(Cl)c1)[C@H](OC(=O)[C@@H](N)CCCNC(=N)N)C(C)(C)O2.Cl.Cl [Example 12, (3S,4S)-6-Acetyl-4-[(3-chloro-4-fluorobenzene)amido]-2,2-dimethyl-3,4-dihydro-2H-1-benzopyran-3-yl (2S)-2-amino-5-carbamimidamidopentanoate dihydrochloride]
solubility ([7]; pH 4.4, aqueous buffer): > 10000 µg/mL
inhibition at 11 µM [8]: 9%

Structure (SMILES): CC(=O)c1ccc2c(c1)[C@H](NC(=O)c1ccc(F)c(Cl)c1)[C@H](OC(=O)[C@@H](N)CCC(N)=O)C(C)(C)O2.Cl [Example 11, (3S,4S)-6-Acetyl-4-[(3-chloro-4-fluorobenzene)amido]-2,2-dimethyl-3,4-dihydro-2H-1-benzopyran-3-yl (2S)-2-amino-4-carbamoylbutanoate hydrochloride]
solubility ([7]; pH 4.6, aqueous buffer): > 2000 µg/mL

More lines, main results first:

solubility ([7]; pH 4.4, aqueous buffer): ~5000 µg/mL
Structure (SMILES): CC(=O)c1ccc2c(c1)[C@H](NC(=O)c1ccc(F)c(Cl)c1)[C@H](OC(=O)[C@@H](N)C(C)C)C(C)(C)O2.Cl [Example 2, (3S,4S)-6-Acetyl-4-[(3-chloro-4-fluorobenzene)amido]-2,2-dimethyl-3,4-dihydro-2H-1-benzopyran-3-yl (2S)-2-amino-3-methylbutanoate hydrochloride]
inhibition at 11 µM [8]: 38%

solubility ([7]; aqueous buffer, pH 4.0): > 10000 µg/mL
Structure (SMILES): CC(=O)c1ccc2c(c1)[C@H](NC(=O)c1ccc(F)c(Cl)c1)[C@H](OC(=O)[C@H](C)N)C(C)(C)O2.Cl [Example 1, (3S,4S)-6-Acetyl-4-[(3-chloro-4-fluorobenzene)amido]-2,2-dimethyl-3,4-dihydro-2H-1-benzopyran-3-yl (2S)-2-aminopropanoate hydrochloride]
IC50 [9]: 6 µM

solubility ([7]; pH 4.4, aqueous buffer): < 1000 µg/mL
Structure (SMILES): CC(=O)c1ccc2c(c1)[C@H](NC(=O)c1ccc(F)c(Cl)c1)[C@H](OC(=O)[C@@H](N)CC(N)=O)C(C)(C)O2.Cl [Example 10, (3S,4S)-6-Acetyl-4-[(3-chloro-4-fluorobenzene)amido]-2,2-dimethyl-3,4-dihydro-2H-1-benzopyran-3-yl (2S)-2-amino-3-carbamoylpropanoate hydrochloride]
inhibition at 11 µM [8]: 18%

solubility ([7]; pH 5.1, aqueous buffer): > 10000 µg/mL
Structure (SMILES): CN[C@@H](C)C(=O)O[C@H]1[C@@H](NC(=O)c2ccc(F)c(Cl)c2)c2cc(C(C)=O)ccc2OC1(C)C.Cl [Example 8, (3S,4S)-6-Acetyl-4-[(3-chloro-4-fluorobenzene)amido]-2,2-dimethyl-3,4-dihydro-2H-1-benzopyran-3-yl (2S)-2-(methylamino)propanoate hydrochloride]

solubility ([7]; pH 4.8, aqueous buffer): < 1000 µg/mL
Structure (SMILES): CC(=O)c1ccc2c(c1)[C@H](NC(=O)c1ccc(F)c(Cl)c1)[C@H](OC(=O)[C@H](N)C(C)C)C(C)(C)O2.Cl [Example 3, (3S,4S)-6-Acetyl-4-[(3-chloro-4-fluorobenzene)amido]-2,2-dimethyl-3,4-dihydro-2H-1-benzopyran-3-yl (2R)-2-amino-3-methylbutanoate hydrochloride]
IC50 [9]: 4.3 µM

solubility ([7]; pH 4.7, aqueous buffer): > 10000 µg/mL
Structure (SMILES): CC(=O)c1ccc2c(c1)[C@H](NC(=O)c1ccc(F)c(Cl)c1)[C@H](OC(=O)C(C)(C)N)C(C)(C)O2.Cl [Example 6, (3S,4S)-6-Acetyl-4-[(3-chloro-4-fluorobenzene)amido]-2,2-dimethyl-3,4-dihydro-2H-1-benzopyran-3-yl 2-amino-2-methylpropanoate hydrochloride]

solubility ([7]; pH 4.2, aqueous buffer): > 10000 µg/mL
Structure (SMILES): CC(=O)c1ccc2c(c1)[C@H](NC(=O)c1ccc(F)c(Cl)c1)[C@H](OC(=O)[C@H](N)CC(C)C)C(C)(C)O2.Cl [Example 4, (3S,4S)-6-Acetyl-4-[(3-chloro-4-fluorobenzene)amido]-2,2-dimethyl-3,4-dihydro-2H-1-benzopyran-3-yl (2R)-2-amino-4-methylpentanoate hydrochloride]

solubility ([7]; pH 4.4, aqueous buffer): > 10000 µg/mL
Structure (SMILES): CC(=O)c1ccc2c(c1)[C@H](NC(=O)c1ccc(F)c(Cl)c1)[C@H](OC(=O)[C@@H]1CCCN1)C(C)(C)O2.Cl [Example 5, (3S,4S)-6-Acetyl-4-[(3-chloro-4-fluorobenzene)amido]-2,2-dimethyl-3,4-dihydro-2H-1-benzopyran-3-yl (2S)-pyrrolidine-2-carboxylate hydrochloride]
IC50 [9]: 1.4 µM
